We go through 14 compounds from patent US9840501B2, “Morpholin-pyridine derivatives” (Hoffmann-La Roche Inc., priority 2014, dated 2017).

In one experiment the target is mouse TAAR1 (Mus musculus (Mouse), UniProt Q923Y8). Description: Radioligand binding assay on mouse TAAR1. Conditions: mouse TAAR1, membranes of stably transfected HEK-293 cells; first value of the pair; read-out: Ki (μM) mouse/rat: mouse. In a few lines: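 Membranes from HEK293 cells stably expressing mouse TAAR1, in 20 mM HEPES-NaOH pH 7.4 with 0.1 mM EDTA, incubated 1 h at 4 °C with ^3[H]-(S)-4-[(ethyl-phenyl-amino)-methyl]-4,5-dihydro-oxazol-2-ylamine and compounds (10 pM to 10 μM, duplicates). Nonspecific binding with 10 μM unlabeled ligand; bound radioactivity counted after filtration.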

Another experiment addresses rat TAAR1 (Rattus norvegicus (Rat), UniProt Q923Y9). The experiment is described as follows: Radioligand binding assay on rat TAAR1. Conditions: rat TAAR1, membranes of stably transfected HEK-293 cells; second value of the pair; read-out: Ki (μM) mouse/rat: rat. In a few lines: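 Membranes from HEK293 cells stably expressing rat TAAR1, in 20 mM HEPES-NaOH pH 7.4; displacement of 3[H]-(S)-4-[(ethyl-phenyl-amino)-methyl]-4,5-dihydro-oxazol-2-ylamine, nonspecific binding with 10 μM unlabeled ligand. Compounds 10 pM to 10 μM in duplicate, 1 h at 4 °C, filtration and scintillation counting.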

Chain of mouse TAAR1 (Q923Y8 whole entry): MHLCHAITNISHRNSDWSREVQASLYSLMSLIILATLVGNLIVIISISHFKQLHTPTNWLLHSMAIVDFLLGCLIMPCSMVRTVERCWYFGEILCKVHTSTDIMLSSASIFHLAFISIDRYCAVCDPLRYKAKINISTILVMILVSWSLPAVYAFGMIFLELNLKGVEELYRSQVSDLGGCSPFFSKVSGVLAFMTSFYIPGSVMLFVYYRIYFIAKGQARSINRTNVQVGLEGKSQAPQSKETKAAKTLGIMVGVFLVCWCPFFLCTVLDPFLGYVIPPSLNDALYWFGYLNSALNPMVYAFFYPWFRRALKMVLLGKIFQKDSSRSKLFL
Chain of rat TAAR1 (Q923Y9 whole entry): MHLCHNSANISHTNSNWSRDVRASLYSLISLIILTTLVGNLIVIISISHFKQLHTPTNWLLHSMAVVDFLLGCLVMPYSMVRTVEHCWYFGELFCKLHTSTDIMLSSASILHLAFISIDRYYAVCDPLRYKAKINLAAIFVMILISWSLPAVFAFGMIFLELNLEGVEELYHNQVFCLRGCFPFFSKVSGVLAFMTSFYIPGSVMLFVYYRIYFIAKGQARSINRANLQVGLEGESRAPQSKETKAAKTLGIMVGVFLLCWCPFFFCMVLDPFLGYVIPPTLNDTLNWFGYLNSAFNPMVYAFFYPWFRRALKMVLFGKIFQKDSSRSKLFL

Consider `CCc1n[nH]c(C(=O)Nc2ccc([C@@H]3CNCCO3)nc2)c1C` [Example 67, (S)-3-Ethyl-4-methyl-N-(6-(morpholin-2-yl)pyridin-3-yl)-1H-pyrazole-5-carboxamide], for which the Ki turned out to be 0.0147 µM on mouse TAAR1 and 0.27 µM on rat TAAR1.
On the same counts, the results for `CCc1n[nH]c(C(=O)Nc2ccc([C@@H]3CNCCO3)nc2)c1F` [Example 77, 3-Ethyl-4-fluoro-N-[6-[(2S)-morpholin-2-yl]-3-pyridyl]-1H-pyrazole-5-carboxamide] are 0.0121 µM and 0.302 µM.
On the same counts, the results for `O=C(Nc1ccc([C@@H]2CNCCO2)nc1)c1cccc(C(F)(F)F)c1` [Example 35, N-[6-[(2S)-Morpholin-2-yl]-3-pyridyl]-3-(trifluoromethyl)benzamide] are 0.0056 µM and 0.0107 µM.
On the same counts, the results for `FC(F)(F)c1ccc(Nc2cnc(C3CNCCO3)nc2)cc1` (racemic) [Example 71, (RS)-2-Morpholin-2-yl-N-[4-(trifluoromethyl)phenyl]pyrimidin-5-amine] are 0.0072 µM and 0.195 µM.
In the case of `FC(F)(F)c1ccnc(Nc2ccc([C@@H]3CNCCO3)nc2)c1` [Example 23, 6-[(2S)-Morpholin-2-yl]-N-[4-(trifluoromethyl)-2-pyridyl]pyridin-3-amine], the Ki on mouse TAAR1 stood at 0.0124 µM; at rat TAAR1, 0.154 µM.
On the same counts, the results for `O=C(Nc1ccc([C@@H]2CNCCO2)nc1)c1[nH]nc(C(F)(F)F)c1Cl` [Example 43, 4-Chloro-N-[6-[(2S)-morpholin-2-yl]-3-pyridyl]-3-(trifluoromethyl)-1H-pyrazole-5-carboxamide] are 0.0474 µM and 0.0838 µM.
On the same counts, the results for `O=C(Nc1ccc([C@H]2CNCCO2)nc1)Nc1cccc(C(F)(F)F)c1` [Example 62, 1-[6-[(2R)-Morpholin-2-yl]-3-pyridyl]-3-[3-(trifluoromethyl)phenyl]urea] are 0.0035 µM and 0.0077 µM.
`CCc1n[nH]c(C(=O)Nc2ccc([C@H]3CNCCO3)nc2)c1Cl` [Example 82, 4-Chloro-3-ethyl-N-[6-[(2R)-morpholin-2-yl]-3-pyridyl]-1H-pyrazole-5-carboxamide]: the Ki at mouse TAAR1 is 0.0039 µM; at rat TAAR1, 0.0925 µM.
On the same counts, the results for `Clc1ccc(Nc2cnc(C3CNCCO3)nc2)cc1` (racemic) [Example 70, (RS)—N-(4-Chlorophenyl)-2-morpholin-2-yl-pyrimidin-5-amine] are 0.0186 µM and 1.45 µM.
For `O=C(Nc1ccc([C@@H]2CNCCO2)nc1)c1ccc(C(F)(F)F)cc1` [Example 33, N-[6-[(2S)-Morpholin-2-yl]-3-pyridyl]-4-(trifluoromethyl)benzamide], the results for the Ki on mouse TAAR1 and on rat TAAR1 were 0.0056 µM and 0.052 µM, respectively.
For `O=C(Nc1ccc([C@H]2CNCCO2)nc1)c1[nH]nc(C2CC2)c1Br` [Example 87, 4-Bromo-3-cyclopropyl-N-[6-[(2R)-morpholin-2-yl]-3-pyridyl]-1H-pyrazole-5-carboxamide] the same measures were 0.0053 µM and 0.0291 µM.
Turning to `Cc1cn[nH]c1C(=O)Nc1ccc([C@@H]2CNCCO2)nc1` [Example 45, 4-Methyl-N-[6-[(2S)-morpholin-2-yl]-3-pyridyl]-1H-pyrazole-5-carboxamide], the Ki was 0.162 µM on mouse TAAR1 and 1.13 µM at rat TAAR1.
On to `Cc1n[nH]c(C(=O)Nc2ccc([C@H]3CNCCO3)nc2)c1Cl` [Example 64, 4-Chloro-3-methyl-N-[6-[(2R)-morpholin-2-yl]-3-pyridyl]-1H-pyrazole-5-carboxamide], for which the Ki was 0.018 µM at mouse TAAR1 and 1.57 µM on rat TAAR1.
As to `CCCc1n[nH]c(C(=O)Nc2cnc(C3CNCCO3)c(C)c2)c1Cl` (racemic) [Example 118, (RS)-4-Chloro-N-(5-methyl-6-morpholin-2-yl-3-pyridyl)-3-propyl-1H-pyrazole-5-carboxamide], the Ki turned out to be 0.0468 µM at mouse TAAR1 and 0.597 µM on rat TAAR1.
